Data on one compound can be found in publication PMC12229529 (Scientific Reports, 2025).

For experiment [1], the target named is T1, PknB (His-PknB) (Trueperella pyogenes, UniProt A0ABV3NC81).
T1 sequence (A0ABV3NC81 1-331): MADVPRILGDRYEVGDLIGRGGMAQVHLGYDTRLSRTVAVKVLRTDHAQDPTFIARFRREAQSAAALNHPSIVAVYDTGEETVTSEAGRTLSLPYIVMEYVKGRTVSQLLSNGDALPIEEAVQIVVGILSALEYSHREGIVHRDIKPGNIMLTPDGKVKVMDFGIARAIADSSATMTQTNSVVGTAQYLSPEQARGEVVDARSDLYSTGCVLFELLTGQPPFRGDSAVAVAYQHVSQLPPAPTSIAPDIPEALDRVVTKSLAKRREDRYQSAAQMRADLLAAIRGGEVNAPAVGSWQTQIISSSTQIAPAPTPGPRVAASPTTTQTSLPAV
Nature of the experiment: SPR. The note with it: 1x PBS-P buffer; luteolin 0.3125-10 μmol/L (KD lies above the tested range). Type of experiment: binding.

In experiment [2] the target is T1, PknB (His-PknB). As to the kind of experiment: ATP consumption luminescence. Type of experiment: biochemical. The note with it: 20 μM ATP, 10 mM MgCl2, 50 mM Tris-HCl pH 7.8, 1 mM DTT, 25 °C, 30 min.
The target in experiment [3] is serine/threonine protein kinase B (PknB). Nature of the experiment: SPR. Type of experiment: binding, Trueperella pyogenes.

Turning to `O=c1cc(-c2ccc(O)c(O)c2)oc2cc(O)cc(O)c12` [luteolin], the Kd (on PknB (His-PknB) [1]; in experiment [3]) was 312 µM each time. For the same compound, on PknB (His-PknB) [2], it took 221 µM to reach half-maximal inhibition (IC50).
